Measured values as given in patent publication US9540619B2, “MELK regulation for the treatment of breast cancer” (NOVARTIS AG, priority 2013, dated 2017).
Entries after “also recorded” stand apart in the source; their conditions may differ. Where a SMILES comes first, the peptide text is derived from it. The star is where a group is joined. Cbz = O=C(OCc1ccccc1)*; CH2F = FC*

Key:
Type in all cases: cell-based, human
FoxM1 [1] = experiment: MELK abundance after FoxM1 inhibition (immunoblotting)
Experimental: Cells were lysed with RIPA buffer (25 mM Tris, pH 7.4, 150 mM NaCl, 1% Nonidet P-40, 0.5% sodium deoxycholate, and 0.1% sodium dodecyl sulfate) supplemented with protease inhibitors cocktail (Roche) and phosphatase inhibitors cocktail (Thermo Scientific). Cleared lysates were analyzed for protein concentration using BCA kit (Thermo Scientific). Equal amount of protein (10-20 μg) was resolved on 8% or 10% SDS-PAGE, and was subsequently transferred onto a nitrocellulose or polyvinylidene difluoride membrane (Amersham). The membrane was blocked with 5% non-fat milk and was then incubated with primary antibodies overnight at 4° C. After washing, the membrane was incubated with fluorophore-conjugated secondary antibodies for 1 h at room temperature. The membrane was then washed and scanned with an Odyssey Infrared scanner (Li-Cor Biosciences). Primary antibodies used in this study include anti MELK (Epitomics, #2916), anti-α-tubulin (Abcam), anti-cyclin B1 (Millipore), anti-Vinculin (Sigma), anti-FoxM1 (Santa Cruz), anti-β-tubulin, anti-phopho-Akt (S473), anti-phospho Akt (T308), anti-total Akt, anti-Flag, anti-cleaved PARP (Asp214), anti-cleaved Caspase 3, anti-AURKA, anti-AURKB, anti-p27 (all from Cell Signaling Technology). Secondary antibodies used were IRDye700-conjugated anti-rabbit IgG and IRDye800-conjugated anti-mouse IgG (Rockland).

FoxM1 [2] = experiment: MELK transcription after FoxM1 inhibition (qRT-PCR); conditions: cells treated for 16 h; quantitative PCR
Experimental: Total RNA was extracted from cultured cells with RNeasy Mini kit (Qiagen), with the use of QIAshredder spin column for homogenization and an on-column DNase digestion. Two micrograms of the total RNA was reversely transcribed using a High Capacity RNA to-cDNA Kit (Applied Biosystems). cDNAs were analyzed quantitatively using Power SYBR Green PCR Master Mix (Applied Biosystems) on an ABI7300 Real-time PCR system. Cycling conditions were 95° C. for 15 min, 40 cycles of 15 s at 94° C., 30 s at 55° C. and 30 s at 72° C. Ct values were generated using the default analysis settings. ΔCT was defined as Ctgene of interest-Ctβactin. ΔΔCT was defined as ΔCttreated sample-Ctcontrol sample. Relative quantification (RQ) was calculated as 2^−ΔΔCT. Statistical analysis was performed by Student's test.

caspases = experiment: MELK knockdown-induced cell death with pan-caspase inhibitor; conditions: MDA-MB-468 cells with shMELK, doxycycline 4 days, last two days with 40 μM zVad-fmk
[3] = test system: BBC cells including BT549, MDA-MB-468, MDA-MB-231, and MDA-MB-436; experiment: Cell proliferation assay (crystal violet) upon doxycycline-induced shRNA; conditions: knockdown induced with doxycycline 100 ng/ml; crystal violet staining six days after initial treatment
Experimental: (§1) Typically, breast cancer cells were seeded in 12-well plates (1-2×10^4) in 1 ml medium. On the next day, wells were added with 110 μl medium without or with 1 μg/ml doxycycline (to reach a final concentration of 100 ng/ml), which was repeated every two days. Six days after the initial treatment, cells were fixed with formaldehyde, and stained with crystal violet (0.05%, weight/volume), a chromatin-binding cytochemical stain. The plates were washed extensively, and imaged with a flatbed scanner. For quantification of the staining, 1 ml 10% acetic acid was added to each well to extract the dye. The absorbance was measured at 590 nm with 750 nm as a reference.

[4] = test system: luminal cell lines, MCF7 and T47D; experiment: as above; conditions: knockdown induced with doxycycline 100 ng/ml
Experimental: as §1

Compound | growth of BBC cells upon induction of the shRNA [3] | growth of luminal cell lines upon induction of the shRNA [4] | other results
C=C(NC(=O)C(=C)NC(=O)c1csc(C2=N[C@@H]3c4csc(n4)[C@H]4NC(=O)c5csc(n5)[C@H]([C@](C)(O)[C@@H](C)O)NC(=O)[C@H]5CSC(=N5)/C(=C/C)NC(=O)[C@H]([C@@H](C)O)NC(=O)c5csc(n5)[C@]3(CC2)NC(=O)[C@H](C)NC(=O)C(=C)NC(=O)[C@H](C)NC(=O)[C@H]([C@@H](C)CC)N[C@@H]2C=Cc3c([C@H](C)O)cc(nc3[C@H]2O)C(=O)O[C@@H]4C)n1)C(N)=O [thiostrepton] | – | – | abundance/expression of MELK protein (FoxM1 [1]; MDA-MB-231 cells, 10 μM thiostrepton vs vehicle (0.1% DMSO)): reduced the abundance of MELK; also recorded: downregulates the expression of MELK; transcription of MELK (FoxM1 [2]): decreases the transcription of MELK
COC(=O)C[C@H](NC(=O)[C@H](C)NC(=O)[C@@H](NC(=O)OCc1ccccc1)C(C)C)C(=O)CF [zVad, zVad-fmk] (Cbz-Val-Ala-Asp(OMe)-CH2F) | – | – | MELK knockdown-induced cell death (caspases): significantly reduced MELK knockdown-induced cell death
GACTAAAGCTTCACTATAATG (expressed or natural sequence) [MELK sh-1805, ID; NO: 2] | strongly impaired the growth | protected from the induction of MELK silencing | –
GAGAGCTGTTTGACTATATAA (expressed or natural sequence) [MELK sh-413, ID; NO: 1] | strongly impaired the growth | protected from the induction of MELK silencing | –
GCCTGAAAGAAACTCCAATTA (expressed or natural sequence; the letters are possibly those of the target site) [shMELK2, ID; NO: 4] | strongly impaired the growth | protected from the induction of MELK silencing | –
GGTGTGATACAGCCTACATAA (expressed or natural sequence; the letters are possibly those of the target site) [shMELK1, ID; NO: 3] | strongly impaired the growth | protected from the induction of MELK silencing | –
ggaccacuuucccuacuuu [siRNA (SEQ ID NO: 31)] | – | – | abundance/expression of MELK protein (FoxM1 [1]; siRNA transfection, lysates three days after transfection): reduced the abundance of MELK; abundance/expression of MELK protein (FoxM1 [1]; siRNA transfection, lysates three days after transfection, listed as siRNA targeting FoxM1): suppresses MELK expression
